Patent publication US4678750A, “Method and compositions for use in the treatment of fireblight” (Microlife Technics, Inc., priority 1984, dated 1987)

System: depolymerase from phage-infected E. amylovora NCPPB595
Assay: Effect of chemical agents on depolymerase activity (galactose release from polysaccharide)
Format: biochemical, phage ERA103 / Erwinia amylovora NCPPB595
Details: for Effect of agent on depolymerase activity (in words): Table 2; for Activity % Control: control assay without inhibitors
Description: Depolymerase activity was assayed by following the release of galactose from the polysaccharide substrate according to the method of Fairbridge (Fairbridge,R. A., et al. Biochem. J. 49:423-427 (1951)). The reaction mixture consisted of the following: 100 microliters of the appropriate enzyme solution and 100 microliters of polysaccharide (10 mg/ml) suspended in 0.01M citrate buffer, pH 6.0 containing 0.01M 2-mercaptoethanol. One unit of enzyme was defined as the amount of enzyme required to produce 1 micromole of galactose per minute under standard assay conditions.
Substrate Preparation. Polysaccharide was prepared from uninfected cultures of Erwinia amylovora NCPPB595 cultivated on sheets of cellophane overlaying Tryptic Soy agar, as decribed by Liu (Liu, P.V., et al., J. Infect. Dis. 108:218-228 (1961)). The polysaccharide was extracted from the slime layer according to the method of Liu.
The effect of various chemical agents on depolymerase activity can be seen in Table 2.

[1] = agent 10.0 millimoles per liter

OCCS [2-Mercaptoethanol]
Effect of agent on depolymerase activity (in words): enhanced depolymerase activity substantially
Activity % Control (agent 0.1 millimoles per liter): 122 % Control
Activity % Control (agent 1.0 millimoles per liter): 155 % Control
Activity % Control [1]: 168 % Control

Oc1cccc2cccnc12 [8-hydroxyquinoline]
Effect of agent on depolymerase activity (in words): insensitive

OC(CS)C(O)CS (centres unmarked) [Dithiothreitol, 1,4 dimercapto-2,3-butanediol]
Effect of agent on depolymerase activity (in words): enhanced depolymerase activity substantially
Activity % Control (agent 0.1 millimoles per liter): 122 % Control
Activity % Control (agent 1.0 millimoles per liter): 138 % Control
Activity % Control [1]: 258 % Control

O=C(O)CI [Iodoacetate]
Effect of agent on depolymerase activity (in words): no efect on enzymatic activity
Activity % Control (agent 0.1 millimoles per liter): 100 % Control
Activity % Control (agent 1.0 millimoles per liter): 100 % Control
Activity % Control [1]: 100 % Control

CCN1C(=O)C=CC1=O [N--ethylmaleimide, N-ethylmaleimide]
Effect of agent on depolymerase activity (in words): no efect on enzymatic activity
Activity % Control (agent 0.1 millimoles per liter): 100 % Control
Activity % Control (agent 1.0 millimoles per liter): 100 % Control
Activity % Control [1]: 100 % Control

[N-]=[N+]=[N-] [Sodium azide]
Effect of agent on depolymerase activity (in words): insensitive
Activity % Control (agent 0.1 millimoles per liter): 100 % Control
Activity % Control (agent 1.0 millimoles per liter): 100 % Control
Activity % Control [1]: 100 % Control

O=C(O)c1cc[c]([Hg][Cl])cc1 [p-Chloromercuribenzoate]
Effect of agent on depolymerase activity (in words): inhibited the enzyme at all concentrations tested
Activity % Control (agent 0.1 millimoles per liter): 0 % Control
Activity % Control (agent 1.0 millimoles per liter): 0 % Control
Activity % Control [1]: 0 % Control

ethylene-di-(o-hydroxyphenylacetate)
Effect of agent on depolymerase activity (in words): insensitive
Activity % Control (agent 0.1 millimoles per liter): 100 % Control
Activity % Control (agent 1.0 millimoles per liter): 100 % Control
Activity % Control [1]: 100 % Control
